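Five compound concentrations were applied to cells in 96-well plates for 48 hours; endpoints were derived by simple linear interpolation of the resulting dose-response curve. TGI marks complete inhibition of growth.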
Experiments:
Test in all cases: NCI anticancer screen, dose series, 48 h
SR leukemia = tested on: SR leukemia
M14 melanoma = tested on: M14 melanoma
OVCAR-4 ovarian = tested on: OVCAR-4 ovarian
T-47D breast = tested on: T-47D breast
HOP-62 NSCLC = tested on: HOP-62 NSCLC
NCI-H23 lung = tested on: NCI-H23 lung
SW-620 colon = tested on: SW-620 colon
DU-145 prostate = tested on: DU-145 prostate
SK-MEL-5 melanoma = tested on: SK-MEL-5 melanoma
RPMI-8226 leukemia = tested on: RPMI-8226 leukemia

SMILES	TGI (SR leukemia) [µM]	TGI (M14 melanoma) [µM]	TGI (OVCAR-4 ovarian) [µM]	TGI (T-47D breast) [µM]	TGI (HOP-62 NSCLC) [µM]	TGI (NCI-H23 lung) [µM]	TGI (SW-620 colon) [µM]	TGI (DU-145 prostate) [µM]	TGI (SK-MEL-5 melanoma) [µM]	TGI (RPMI-8226 leukemia) [µM]
C[As+](C)(c1ccc(Br)c([N+](=O)[O-])c1)c1ccc(Br)c([N+](=O)[O-])c1.O=[N+]([O-])O	> 100	> 100	> 100	> 100	> 100	> 100	> 100	> 100	22	> 100
CCn1ncc2c(=O)n3ncn(-c4ccc(Br)cc4)c3nc21	> 100	> 100	> 100	> 100	> 100	> 100	> 100	> 100	> 100	> 100
C=C(C)[C@H]1CC23C(=O)[C@@](C)(C[C@H]2C1(C)C)C(=O)C(C(=O)C(C)C)=C3O	38.7	31.4	34.9	> 100	40.4	43	34.5	> 100	31.5	27.9
Cc1cc(-c2cc(C(C)(C)C)c(O)c(C(C)(C)C)c2)c(C)cc1-c1cc(C(C)(C)C)c(O)c(C(C)(C)C)c1	> 100	> 100	> 100	> 100	> 100	> 100	> 100	> 100	> 100	> 100
COc1ccc([C@]23CCC4(OCC(C)(C)CO4)[C@H]4CON(O[C@H](O[C@@H]5CCCCC5C(C)(C)c5ccccc5)C2)[C@@H]43)cc1OC (stereo not given in full)	49.4	> 100	> 100	> 100	> 100	> 100	> 100	> 100	45.4	> 100
CC1=C(C(=O)OCCO[N+](=O)[O-])C(c2ccccc2[N+](=O)[O-])C(C(=O)OC(C)C)=C(C)N1 (stereo not given)	> 100	29.3	52.3	46.8	33.8	48.5	39.9	50.4	26.8	> 100
CCOC(=O)[C@@H](Cc1ccc(CCl)cc1)NC(C)=O	> 100	89.3	41.1	93.7	75.1	68.3	> 100	> 100	31.5	88.4
O=C1CSC(c2c[nH]c3ccccc23)N1c1ccc(Cl)cc1Cl (stereo not given)	> 100	> 100	> 100	> 100	> 100	> 100	> 100	> 100	> 100	> 100
CC1=NN2C(=N)/C(=C/c3ccc(F)cc3)C(=O)N=C2S1	> 100	> 100	> 100	> 100	> 100	> 100	> 100	> 100	> 100	> 100
O=C1C=CC(=O)c2c(O)c(N3CCC[C@@H]3CO)c(Cl)c(O)c21	4.88	3.2	3.16	4.27	3.06	3.55	3.42	3.28	2.28	1.69
CCC1([N+](=O)[O-])CN(N=O)C1	> 100	> 100	> 100	> 100	> 100	> 100	> 100	> 100	> 100	> 100
Clc1ccc(/C(=C/c2ccccc2)Cn2ccnc2)cc1	78.4	65.6	> 100	> 100	> 100	> 100	> 100	> 100	36.4	73.6
Cc1cccc2c1CC(Cc1ccccc1C(=O)O)C2=O (stereo not given)	> 100	> 100	> 100	> 100	> 100	> 100	> 100	> 100	> 100	> 100
CC(=O)Oc1ccc2c(-c3ccccc3)c(Oc3ccc(Cl)cc3)c(=O)oc2c1	84.4	37	35.8	21.2	34.9	44.6	39.4	27.4	32.6	> 100
NC(=O)NN=C1Cc2ccccc2C1	> 100	> 100	> 100	> 100	> 100	> 100	> 100	> 100	> 100	> 100
N#C/C(C(=O)NCc1ccccc1)=C(/N)N1CCCC1	> 100	> 100	> 100	> 100	> 100	> 100	> 100	> 100	> 100	> 100
CS(=O)(=O)Nc1ccc2ccccc2c1	> 100	> 100	> 100	> 100	> 100	> 100	> 100	> 100	> 100	> 100
COc1cc2c(cc1OCc1ccccc1)NC(=O)[C@@H]1CCCN1C2=O	> 100	> 100	> 100	> 100	> 100	> 100	> 100	> 100	> 100	> 100
CC(C)=CCC[C@@H](C)C1=C(Nc2ccccc2F)C(O)=C(C)C(=O)C1=O	> 100	> 100	> 100	64.1	> 72.1	36.1	> 69.1	> 100	14.8	> 100

Source: PubChem BioAssay (NCI)
